Test results published in US20240392302A1, “METHOD FOR DETECTING AND QUANTIFYING RNA” (FLUORESCENCE DIAGNOSIS (SHANGHAI) BIOTECH COMPANY LTD., priority 2021, published 2024).

Test system: F30-N16-1 RNA aptamer molecules
Test: Binding of F30-N16-1 RNA aptamer molecules with different fluorescent molecules (fluorescence spectrum, activation multiple)
Type: biochemical
Settings: for Maximum emission peak (nm) / Maximum excitation peak (nm): complex with F30-N16-1; for Activation Multiple: fluorophore with F30-N16-1
Description: Nucleic acid aptamer molecules of N16 or N16 mutants were prepared by using the commonly-used experimental method (I), 2.5 μM of nucleic acid aptamer molecules and 0.5 μM of fluorophore molecules were incubated in a detection buffer (40 mM of HEPES, pH 7.4, 125 mM of KCl, 5 mM of MgCl2, 5% DMSO), and the maximum excitation peak and the maximum emission peak of the fluorescence of the nucleic acid aptamer-fluorophore molecular complex were detected with Synergy Neo2 multifunctional enzyme-labeler. Synergy Neo2 multifunctional enzyme-labeler was used again to detect fluorescence intensity of the nucleic acid aptamer-fluorophore molecular complex under its maximum excitation and emission conditions, the control sample ([…] of fluorophore molecules without nucleic acid aptamer) was also measured under the same conditions, and the ratio of fluorescence intensity was calculated. For example, as for fluorescence of the complex formed by 2.5 μM of N16-1 nucleic acid aptamer and 0.5 μM of I-5-14 fluorophore molecules, the maximum excitation peak is 512 nm and the maximum emission peak is 574 nm. It was detected by the Synergy Neo2 multifunctional enzyme-labeler that the fluorescence intensity of the complex at an excitation condition of 512±10 nm and an emission condition of 574 nm±10 nm was 49,088, while the fluorescence intensity of the control (0.5 μM of I-5-14 fluorophore molecules) under the same detection conditions was 399, so the activation multiple of N16-1 nucleic acid aptamer to I-5-14 fluorophore molecules was 123.
F30-N16-1 RNA aptamer molecules were prepared by using the commonly-used experimental method (I), and were used for detecting basic properties, including fluorescence spectrum and fluorescence activation multiple, of the binding of I-5-14 analogues with N16.

SMILES	Maximum emission peak (nm)	Maximum excitation peak (nm)	Activation Multiple
CN(CCO)c1ccc(/C=C2\OC(=O)NC2=O)s1 [I-5-1]	500 nm	460 nm	14
CN(CCNS(C)(=O)=O)c1ccc(/C=C2\SC(=O)NC2=S)s1 [I-5-3]	580 nm	550 nm	14
CN(CCO)c1ccc(/C=C2\SC(=S)NC2=S)s1 [I-5-4]	638 nm	625 nm	47
CCN1C(=O)S/C(=C\c2ccc(N(C)CCO)s2)C1=O [I-5-5]	518 nm	487 nm	11
O=C1NC(=S)N/C1=C\c1ccc(N(CCO)CCO)s1 [I-5-6]	550 nm	536 nm	23
CN1C(=O)O/C(=C\c2ccc(N(C)C)s2)C1=O [I-5-7]	504 nm	465 nm	24
CN(C)c1ccc(/C=C2\SC(=O)NC2=S)s1 [I-5-8]	582 nm	554 nm	15
CN(C)c1ccc(/C=C2\SC(=S)N(N)C2=O)s1 [I-5-9]	578 nm	552 nm	17
CN(C)c1ccc(/C=C2\SC(=S)NC2=S)s1 [I-5-10]	642 nm	626 nm	11
CN(C)c1ccc(/C=C2\SC(=O)NC2=O)s1 [I-5-11]	524 nm	493 nm	9
CN(C)c1ccc(/C=C2\NC(=S)NC2=O)s1 [I-5-12]	555 nm	535 nm	11
CCN1C(=O)O/C(=C\c2ccc(N(C)CCO)cc2)C1=O [I-5-13]	492 nm	393 nm	8
CN(CCO)c1ccc(/C=C2\SC(=O)NC2=S)cc1 [I-5-15]	598 nm	567 nm	31
CN(CCO)c1ccc(/C=C2\SC(=S)N(N)C2=S)cc1 [I-5-16]	648 nm	615 nm	11
CN(CCO)c1ccc(/C=C2\SC(=O)NC2=O)cc1 [I-5-17]	506 nm	445 nm	105
CN1C(=O)/C(=C/c2ccc(N(C)CCO)cc2)NC1=S [I-5-18]	545 nm	473 nm	57
CN(C)c1ccc(/C=C2\OC(=O)N(N)C2=O)cc1 [I-5-19]	499 nm	397 nm	18
CN(C)c1ccc(/C=C2\SC(=S)N(CCC(=O)O)C2=O)cc1 [I-5-20]	565 nm	493 nm	22
CN(C)c1ccc(/C=C2\SC(=O)NC2=S)cc1 [I-5-21]	605 nm	569 nm	24
CN(C)c1ccc(/C=C2\SC(=S)NC2=S)cc1 [I-5-22]	657 nm	613 nm	126
CN(C)c1ccc(/C=C2\SC(=O)NC2=O)cc1 [I-5-23]	515 nm	433 nm	156
CN(C)c1ccc(/C=C2\NC(=S)NC2=O)cc1 [I-5-24]	543 nm	473 nm	7
CN(CCO)c1ccc(/C=C2\OC(=O)N(CCC(=O)O)C2=O)c(F)c1 [I-5-25]	502 nm	403 nm	6
CN(CCOC(=O)CCOCCO)c1ccc(/C=C2\SC(=S)NC2=O)c(Br)c1 [I-5-26]	567 nm	497 nm	21
Cc1cc(N(C)CCNC(=O)CCOCCOCCO)ccc1/C=C1\SC(=O)NC1=S [I-5-27]	603 nm	565 nm	11

SMILES	Maximum emission peak (nm)	Maximum excitation peak (nm)	Activation Multiple
CN1CCc2cc(/C=C3\SC(=O)NC3=O)ccc21 [I-5-29]	525 nm	453 nm	14
CN1CCc2cc(/C=C3\NC(=S)NC3=O)c(Cl)cc21 [I-5-30]	562 nm	497 nm	11
CN1C(=O)/C(=C/c2ccc3c(c2)SCCN3C)SC1=S [I-5-31]	610 nm	503 nm	125
CN1C(=O)S/C(=C\c2ccc3c(c2)SCCN3C)C1=S [I-5-32]	625 nm	519 nm	15
CN1CCSc2cc(/C=C3\SC(=O)NC3=O)ccc21 [I-5-33]	553 nm	442 nm	154
CN1CCSc2cc(/C=C3\SC(=S)NC3=S)ccc21 [I-5-34]	659 nm	547 nm	11
CCN1C(=O)/C(=C/c2ccc3c(c2)SCCN3C)NC1=S [I-5-35]	585 nm	487 nm	10
CN1CCOc2cc(/C=C3\SC(=O)NC3=S)ccc21 [I-5-36]	625 nm	517 nm	9
CN1CCOc2cc(/C=C3\SC(=S)NC3=O)ccc21 [I-5-37]	603 nm	497 nm	256
CN1CCOc2cc(/C=C3\SC(=S)N(CCC(=O)O)C3=S)ccc21 [I-5-38]	647 nm	545 nm	7
CN1CCCc2cc(/C=C3\SC(=O)NC3=O)ccc21 [I-5-39]	509 nm	429 nm	14
CN1C(=O)/C(=C/c2ccc3c(c2)CCCN3C)NC1=S [I-5-40]	548 nm	473 nm	8
CC1=CC(C)(C)N(C)c2ccc(/C=C3\SC(=S)NC3=O)cc21 [I-5-41]	612 nm	517 nm	85
CC1=CC(C)(C)N(C)c2ccc(/C=C3\SC(=O)NC3=S)cc21 [I-5-42]	627 nm	527 nm	11
CC1=CC(C)(C)N(C)c2ccc(/C=C3\SC(=S)NC3=S)cc21 [I-5-43]	665 nm	572 nm	17
CCN1C(=O)S/C(=C\c2ccc3c(c2)C(C)=CC(C)(C)N3C)C1=O [I-5-44]	549 nm	459 nm	21
CC1=CC(C)(C)N(C)c2ccc(/C=C3\NC(=S)NC3=O)cc21 [I-5-45]	595 nm	497 nm	11
CN1C(=O)S/C(=C\c2cc3c4c(c2)CCCN4CCC3)C1=S [I-5-46]	633 nm	542 nm	7
O=C1NC(=S)S/C1=C\c1cc2c3c(c1)CCCN3CCC2 [I-5-47]	607 nm	529 nm	245
S=C1NC(=S)/C(=C/c2cc3c4c(c2)CCCN4CCC3)S1 [I-5-48]	675 nm	579 nm	6
O=C1NC(=O)/C(=C/c2cc3c4c(c2)CCCN4CCC3)S1 [I-5-49]	539 nm	469 nm	1025
O=C1NC(=S)N/C1=C\c1cc2c3c(c1)CCCN3CCC2 [I-5-50]	597 nm	512 nm	7
CN(C)c1cc2sc(/C=C3\SC(=S)NC3=O)cc2s1 [I-5-51]	654 nm	582 nm	1125
CN(C)c1cc2sc(/C=C3\SC(=S)NC3=S)cc2s1 [I-5-52]	725 nm	686 nm	7
CN(C)c1cc2sc(/C=C3\SC(=O)NC3=O)cc2s1 [I-5-53]	593 nm	518 nm	1281
